Measurements from US20060079696A1, “Substituted compounds derived from N-(benzyl)phenylacetamide, preparation and uses” (GENFIT, priority 2004, published 2006).

Legend:
[1] = biological target: T1, hPPARα (Homo sapiens, UniProt Q07869); experiment: Gal4-hPPARα chimera transactivation in COS-7 cells (luciferase); type: cell-based; details: induction factor standardised to an internal reference, read-out: % hGal4-PPAR transactivation (10 μM) alpha
T1 construct: fragments of DNA amplified by PCR corresponding to the DEF domains of the human PPARα, PPARγ PPARδ nuclear receptors; expressed in transfected cells; host or cells: COS-7 (monkey kidney fibroblast line)
T1 sequence (Q07869 239-466 limits assumed): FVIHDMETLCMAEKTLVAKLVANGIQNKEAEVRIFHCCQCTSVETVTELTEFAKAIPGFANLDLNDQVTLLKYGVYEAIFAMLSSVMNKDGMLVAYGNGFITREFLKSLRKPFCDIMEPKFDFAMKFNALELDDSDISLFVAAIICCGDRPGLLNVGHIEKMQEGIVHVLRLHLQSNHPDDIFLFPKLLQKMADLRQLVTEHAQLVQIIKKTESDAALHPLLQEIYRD
Method in brief: (§1)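 COS-7 cells transiently transfected with Gal4-DBD/human PPAR DEF-domain chimeras plus Gal4(RE)_TkpGL3 luciferase reporter (1/10 ratio), then exposed 24 h serum-free to compound at 10 μM. Luciferase induction factor over control, normalised to an internal reference per isoform, expressed as percent activation.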

[2] = system: Male Dunkin Hartley guinea pigs; experiment: Lipid-lowering effect in guinea pigs on a cholesterol and fat enriched diet; type: in vivo, guinea pig; details: 200 mpk for 14 days; high fat diet
Method: The lipid-lowering effect of the inventive compounds was evaluated in vivo in Hartley guinea pigs. In guinea pigs, as in man, a diet enriched in cholesterol and fatty acids induces an increase in the plasmatic levels of lipids. Plasmatic lipid levels (cholesterol and triglycerides) after 14 days treatment were measured and compared to the levels observed for non-treated animals (controls).
Male Dunkin Hartley guinea pigs (Harlan, Gannat, France) aged 5-6 weeks at the start of the experiment were put in groups of 6 animals selected such that the distribution of their body weight and of their plasmatic lipid levels determined before the experiment were uniform. The guinea pigs were given a diet containing 0.2% cholesterol and 14% fats (Research Diets Inc.-USA). They were kept in a 12 hour/12 hour light/dark cycle at a constant temperature of 20±3° C. and had free access to water and food. The amount of food eaten and the increase in weight were recorded. The compounds tested were suspended in an aqueous carboxymethylcellulose solution (Sigma C4888) at 1% containing 0.1% Tween80 (Sigma P8074) and administered daily by intragastric gavage for 14 days at a dose of 200 mg/kg/day. […]
The plasmatic concentrations of the lipids (total cholesterol and triglycerides) were measured by enzymatic titrations (bioMérieux-Lyon-France) according to the supplier's recommendations.

[3] = biological target: T2, hPPARγ (Homo sapiens, UniProt P37231); experiment: Gal4-hPPARγ chimera transactivation in COS-7 cells (luciferase); type: cell-based; details: induction factor standardised to an internal reference, read-out: % hGal4-PPAR transactivation (10 μM) gamma
T2 construct: fragments of DNA amplified by PCR corresponding to the DEF domains of the human PPARα, PPARγ PPARδ nuclear receptors; expressed in transfected cells; host or cells: COS-7 (monkey kidney fibroblast line)
T2 sequence (P37231 238-503 limits assumed): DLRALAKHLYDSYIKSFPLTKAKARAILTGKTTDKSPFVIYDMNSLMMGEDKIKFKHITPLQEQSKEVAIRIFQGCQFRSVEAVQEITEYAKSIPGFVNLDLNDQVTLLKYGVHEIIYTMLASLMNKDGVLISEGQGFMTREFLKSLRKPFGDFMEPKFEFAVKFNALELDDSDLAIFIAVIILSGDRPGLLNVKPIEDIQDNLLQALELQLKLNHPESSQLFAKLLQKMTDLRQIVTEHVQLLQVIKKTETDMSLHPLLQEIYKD
Method in brief: as §1

activation at 10 µM [1]: 42%
activation at 10 µM [3]: < 10%
Compound: CCCCC(NC(=O)Cc1ccc(OC(C)(C)C(=O)NS(C)(=O)=O)cc1)c1ccccc1N1CCCCC1 (stereo not shown) [Compound 52, N-[methylsulfonyl]-2-[4-[1-(1-(2-(1-piperidinyl)phenyl)pentyl)aminocarbonylmethyl]phenoxy]-2-methylpropanamide]
Cholesterol plasmatic levels, lower than controls [2]: approximately 45%
Triglycerides plasmatic levels, lower than controls [2]: approximately 22%
